From PubChem BioAssay (NCI)
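A five-concentration, 48-hour dose response in 96-well plates underlies each endpoint, interpolated linearly between surrounding concentrations. TGI marks complete inhibition of growth.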

Legend:
Assay in all cases: inhibition of tumour cell growth, NCI panel, 48 h
SK-MEL-2 melanoma = tested on: SK-MEL-2 melanoma
TK-10 renal = tested on: TK-10 renal
786-0 renal = tested on: 786-0 renal
COLO 205 colon = tested on: COLO 205 colon
SK-OV-3 ovarian = tested on: SK-OV-3 ovarian
CAKI-1 renal = tested on: CAKI-1 renal
NCI-H522 lung = tested on: NCI-H522 lung
SR leukemia = tested on: SR leukemia
OVCAR-3 ovarian = tested on: OVCAR-3 ovarian
HCC-2998 colon = tested on: HCC-2998 colon
SF-539 CNS = tested on: SF-539 CNS
HOP-62 NSCLC = tested on: HOP-62 NSCLC
SNB-19 CNS = tested on: SNB-19 CNS
RPMI-8226 leukemia = tested on: RPMI-8226 leukemia
HCT-15 colon = tested on: HCT-15 colon
LOX IMVI melanoma = tested on: LOX IMVI melanoma
T-47D breast = tested on: T-47D breast
HS 578T breast = tested on: HS 578T breast
DU-145 prostate = tested on: DU-145 prostate
BT-549 breast = tested on: BT-549 breast

Measured: TGI

Ic1ncnc2c1ncn2C1CCCO1 (stereo unspecified)
not listed: T-47D breast | HS 578T breast | DU-145 prostate | BT-549 breast
> 100 µM: all other assays above

CCN(CC)c1cc2c3c(c1)CCCN3CCC2
not listed: BT-549 breast
> 10 µM: all other assays above

COc1ccc(Nc2nnc(CCCCCCCCc3nnc(Nc4ccc(OC)cc4)o3)o2)cc1
not listed: SR leukemia | RPMI-8226 leukemia | T-47D breast | HS 578T breast
> 100 µM: all other assays above

CCOC(=O)CCC(NC(=O)c1ccc(CNc2nc3ccccc3nc2C(=O)OCC)cc1)C(=O)OCC (stereo unspecified)
not listed: CAKI-1 renal | SR leukemia | HCC-2998 colon | SF-539 CNS | T-47D breast | BT-549 breast
> 100 µM: all other assays above

O=[n+]1c2ccccc2n([O-])c2ccccc21
not listed: SK-OV-3 ovarian | OVCAR-3 ovarian | HCC-2998 colon | BT-549 breast
> 100 µM: all other assays above
